In PMC10216263, “Favorable Preclinical Pharmacological Profile of a Novel Antimalarial Pyrrolizidinylmethyl Derivative of 4-amino-7-chloroquinoline with Potent In Vitro and In Vivo Activities” (Biomolecules, 2023):
Where two headings read alike, the source gives them in different places.

Assays:
[1] = in vivo; set-up: species or system male Sprague Dawley rats; details: male, Sprague Dawley, rat
Procedure: The formulations were prepared on the days of dosing, immediately before administration. MG3 for IV administration was formulated as in situ dimesylate salt, in 5% of glucose solution (4 mg/mL nominal concentration), while for oral administration it was prepared by suspending the test item in 0.5% methocel solution (v/v) (6 mg/mL nominal concentration). […] After 5-days postoperative recovery period, MG3 was administered and serial blood samples (about 0.3 mL) were collected from femoral vein using heparinized syringe at 5, 15, and 30 min, 1, 3, 6, 24-, 48-, 72- and 96-hours post-dosing after IV administration and at 15, and 30 min, 1, 3, 6 and 24-, 48-, 72- and 96-hours post-dosing after oral administration. The samples were then transferred into pre-cooled tubes protected from light and centrifuged at 3000 rpm for 4 min at +4 °C to collect plasma, and single aliquots of plasma were stored at −80 °C until analysis. Sample analysis: 400 µL of methanol was added to 10 µL of plasma in a 96-well plate; after centrifugation for 15 min at 2000 rpm at 6 °C, an aliquot of 360 µL of supernatant was transferred into a new 96-well plate and dried at 40 °C. Sample extracts were reconstituted with a volume of 150 µL of a mixture solution of 10 mM ammonium formate pH 3.5:methanol (90:10; v/v) and centrifuged for 3 min at 2000 rpm at 6 °C and the supernatant was injected onto the LC-MS/MS system. A HP1100 HPLC with a Synergy 4 um Hydro-RP 80A 2.0 × 50 mm column, coupled with AB/MDS Sciex 4000 QTrap in positive ion mode was utilized for analysis; 10 µL samples were injected, a gradient with 10 mM ammonium formate pH 3.5 and methanol was utilized. Data obtained were analyzed using the non-compartmental approach (Watson package v. 6.4.0.04, Thermo Fisher Scientific, Waltham, MA, USA).

[2] = test system: beta-hematin (malaria pigment) formation; set-up: method as in PMID 18538567; details: in vitro BHIA; cited from earlier work
[3] = test system: all the Pf strains tested; assay: In vitro antimalarial activity, summary over all Pf strains tested; type: cell-based, P. falciparum; details: for IC50: Plasmodium falciparum
Procedure: The strains D10 and 3D7 (CQ-Sensitive), and V1-S (CQ, pyrimethamine and cycloguanil resistant), K1 (CQ and PYR resistant), W2 and FCR3 (CQ-Resistant), TM90C2A (CQ, MQ, PYR and ATQ resistant) and IPC 5202 (MR4-1240, artemisinin-resistant, K13 mutation, and R539T) of Pf were cultured in vitro as described by Trager and Jensen with minor modifications. Briefly, parasites were maintained at 5% hematocrit (human type A-positive red blood cells) in RPMI 1640 (EuroClone, S.p.A. Milan, Italy) medium with the addition of 10% heat inactivate human serum or 1% AlbuMax (In vitrogen, Milan, Italy), 20 mM Hepes and 2 mM glutamine (Euroclone), at 37 °C in a standard gas mixture consisting of 1–3% O2, 5% CO2, and 92–94% N2.
Compounds were dissolved in either water or DMSO and then diluted with medium to achieve the required concentrations (final non-toxic DMSO concentration <1%). Asynchronous cultures of Pf with parasitaemia of 1–1.5% and 1% final hematocrit were aliquoted into 96-well flat-bottom microplates (Corning, Glendale, AZ, USA) with serial dilutions of test compounds and incubated for 72 h at 37 °C. Parasite growth was determined spectrophotometrically (OD650) by measuring the activity of the parasite lactate dehydrogenase (pLDH) according to a modified version of the method of Makler in control and drug-treated cultures.

[4] = target: CYP2C19 (Homo sapiens, UniProt P33261); assay: in vitro
Chain of CYP2C19 (P33261 whole entry): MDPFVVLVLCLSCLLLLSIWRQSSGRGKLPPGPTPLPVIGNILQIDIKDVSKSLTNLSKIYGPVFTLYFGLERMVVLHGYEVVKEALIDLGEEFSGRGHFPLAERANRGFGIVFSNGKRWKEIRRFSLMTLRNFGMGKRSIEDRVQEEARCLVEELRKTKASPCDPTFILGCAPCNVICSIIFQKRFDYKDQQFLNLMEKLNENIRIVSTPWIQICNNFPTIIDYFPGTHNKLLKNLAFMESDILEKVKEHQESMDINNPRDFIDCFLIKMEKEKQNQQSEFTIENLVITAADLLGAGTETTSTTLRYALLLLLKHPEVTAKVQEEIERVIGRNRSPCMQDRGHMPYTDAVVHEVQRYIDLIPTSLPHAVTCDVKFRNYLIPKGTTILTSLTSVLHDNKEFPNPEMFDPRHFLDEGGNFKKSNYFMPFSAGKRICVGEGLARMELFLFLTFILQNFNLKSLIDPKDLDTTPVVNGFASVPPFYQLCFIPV

[5] = test system: P. falciparum FCR3 (CQ-R); assay: In vitro antimalarial activity, [3H]-hypoxanthine incorporation (LSHTM); type: cell-based; details: Plasmodium falciparum, FCR3; 72 h, [3H]-hypoxanthine incorporation, mean of 3 experiments; read-out: P. falciparum IC50 nM, FCR3 (CQ-R)
[6] = target: CYP2C9 (Homo sapiens, UniProt P11712); assay: in vitro
Chain of CYP2C9 (P11712 whole entry): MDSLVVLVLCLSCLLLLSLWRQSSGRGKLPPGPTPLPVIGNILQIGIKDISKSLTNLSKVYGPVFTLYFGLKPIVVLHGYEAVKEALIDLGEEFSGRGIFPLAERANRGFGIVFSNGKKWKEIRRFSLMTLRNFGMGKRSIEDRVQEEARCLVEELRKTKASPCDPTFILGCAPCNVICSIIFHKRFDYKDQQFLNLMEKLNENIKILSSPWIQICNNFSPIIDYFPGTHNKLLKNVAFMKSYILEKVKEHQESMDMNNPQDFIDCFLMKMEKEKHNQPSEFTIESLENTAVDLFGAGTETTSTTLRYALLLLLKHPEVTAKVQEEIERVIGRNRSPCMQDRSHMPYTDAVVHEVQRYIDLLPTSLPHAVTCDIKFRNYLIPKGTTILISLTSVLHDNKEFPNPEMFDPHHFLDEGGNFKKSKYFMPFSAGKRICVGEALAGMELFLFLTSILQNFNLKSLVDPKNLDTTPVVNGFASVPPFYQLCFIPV

[7] = test system: Salmonella typhimurium TA100; assay: Bacterial Reverse Mutation Assay; details: TA 100, with metabolic activation
Procedure: using the preincubation method (30 min, 37°C) with and without phenobarbital-5,6-benzoflavone induced
MG3 was dissolved in distilled water (H2O) at
the maximum concentration of 40 mg/mL and tested in a preliminary range-finding test in all strains of
metabolic activation to determine the toxicity of the compound.

[8] = Chemical stability in incubation medium; type: physicochemical; details: 90 min at 37 °C, Leibovitz L-15 medium
Procedure: An automatic liquid handling system (Multiprobe II EX, Packard) was used for sampling. At 0, 10, 20, 30, 60 and 90 min, […] aliquots of the incubates were taken and added with […] of ice-cold ACN and […] of 1 µM warfarin in ACN (internal standard), and samples centrifuged at 2000 rpm for 20 min. The analysis of supernatant was conducted using LC-MS/MS. MG3 was incubated in the medium under the same conditions to evaluate the chemical stability; 7-ethoxycoumarin (7-ETC) 1 µM and 7-hydroxycoumarin (7-HC) 30 µM were utilized as positive controls for Phase I and Phase II activities. […] Half-life and CLint were determined from the concentration (counts) remaining at the different sampling points using the LC-MS/MS method. The slope was calculated using linear regression analysis of the curve (natural logarithmic area of the compound remaining against the time) and converted into the half-life (t1/2) and CLint expressed as µL/min/million cells and mL/min/kg, respectively.

Clc1ccc2c(NCC34CCCN3CCC4)ccnc2c1 [MG3, 7-Chloro-N-((hexahydro-1H-pyrrolizin-7a-yl)methyl)quinolin-4-amine]
AUC(0-inf) ([1]; iv, 10 mg/kg): 1300 ± 223 ng·h/mL
AUC(0-t) ([1]; iv, 10 mg/kg): 1290 ± 217 ng·h/mL
Cmax ([1]; iv, 10 mg/kg): 395 ± 118 ng/mL
Vd ([1]; iv, 10 mg/kg): 59.9 L/kg
clearance ([1]; iv, 10 mg/kg): 139 ± 20.2 mL/min/kg
half-life ([1]; iv, 10 mg/kg): 7.7 ± 0.6 h
tlast ([1]; iv, 10 mg/kg): 48.0 ± 0.1 h
AUC(0-inf) ([1]; po, 30 mg/kg): 4400 ± 633 ng·h/mL
AUC(0-t) ([1]; po, 30 mg/kg): 4360 ± 630 ng·h/mL
Cmax ([1]; po, 30 mg/kg): 213 ± 23.7 ng/mL
half-life ([1]; po, 30 mg/kg): 10.7 ± 1.2 h
still detectable in the plasma up to ([1]; po, 30 mg/kg): 72 to 96 h
tlast ([1]; po, 30 mg/kg): 80.0 ± 13.9 h
inhibition of beta-hematin formation [2]: able to inhibit the formation of beta-hematin
activity fold lower than that of ASN or DHA ([3]; P. falciparum strains): 5–6 fold
IC50 ([3]; read-out: mean IC50 against all the Pf strains tested): 20.9 nM
IC50 ([3]; range over strains, read-out: IC50 range against all the Pf strains tested): 12 to 30 nM
inhibition at 3 µM [4]: < 3%
IC50 [5]: 13.2 nM
inhibition at 3 µM [6]: 8.8 ± 2.2%
fold increase value (ratio treated/solvent revertant numbers) ([7]; I° Exp., 62.5 µg/plate): 0.6
fold increase value (ratio treated/solvent revertant numbers) ([7]; I° Exp., 125 µg/plate): 0.6
fold increase value (ratio treated/solvent revertant numbers) ([7]; I° Exp., 250 µg/plate): 0.8
fold increase value (ratio treated/solvent revertant numbers) ([7]; I° Exp., 500 µg/plate): 0.8
fold increase value (ratio treated/solvent revertant numbers) ([7]; I° Exp., 1000 µg/plate): 0.8
fold increase value (ratio treated/solvent revertant numbers) ([7]; Range finding, 1.95 µg/plate): 1.1
fold increase value (ratio treated/solvent revertant numbers) ([7]; Range finding, 3.9 µg/plate): 1.1
fold increase value (ratio treated/solvent revertant numbers) ([7]; Range finding, 7.81 µg/plate): 1.2
fold increase value (ratio treated/solvent revertant numbers) ([7]; Range finding, 15.63 µg/plate): 0.9
fold increase value (ratio treated/solvent revertant numbers) ([7]; Range finding, 31.25 µg/plate): 1.0
fold increase value (ratio treated/solvent revertant numbers) ([7]; Range finding, 62.5 µg/plate): 1.0
fold increase value (ratio treated/solvent revertant numbers) ([7]; Range finding, 125 µg/plate): 1.0
fold increase value (ratio treated/solvent revertant numbers) ([7]; Range finding, 250 µg/plate): 1.0
fold increase value (ratio treated/solvent revertant numbers) ([7]; Range finding, 500 µg/plate): 1.2
fold increase value (ratio treated/solvent revertant numbers) ([7]; Range finding, 1000 µg/plate): 0.7
chemical stability in incubation medium alone [8]: did not show any degradation
